Test results taken from patent US20100324829A1, “METHOD OF SELECTING HLA-DP4 LIGANDS AND THE APPLICATIONS THEREOF” (priority 2001, published 2010).
Numbering of substitutions follows the chain as printed.

Tests used:
[1] = molecular target: T1, HLA-DP4 molecule DPA1*0103/DPB1*0402 (DP402) (Homo sapiens, UniProt P04440+P20036); test: biochemical; type: binding
T1 construct: purified from various human B lymphocyte lines transformed with the Epstein Barr virus (EBV), which are homozygotes for DP; endogenous in cells
T1 sequence (P20036 29-260): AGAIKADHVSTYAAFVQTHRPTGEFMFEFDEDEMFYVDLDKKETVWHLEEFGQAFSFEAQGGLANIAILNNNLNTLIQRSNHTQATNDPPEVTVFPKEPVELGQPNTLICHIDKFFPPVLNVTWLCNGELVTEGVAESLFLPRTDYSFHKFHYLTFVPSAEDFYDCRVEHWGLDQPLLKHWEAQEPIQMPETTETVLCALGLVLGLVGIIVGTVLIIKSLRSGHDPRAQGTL
T1 sequence (P04440 30-258 A65V/A84D/A85E): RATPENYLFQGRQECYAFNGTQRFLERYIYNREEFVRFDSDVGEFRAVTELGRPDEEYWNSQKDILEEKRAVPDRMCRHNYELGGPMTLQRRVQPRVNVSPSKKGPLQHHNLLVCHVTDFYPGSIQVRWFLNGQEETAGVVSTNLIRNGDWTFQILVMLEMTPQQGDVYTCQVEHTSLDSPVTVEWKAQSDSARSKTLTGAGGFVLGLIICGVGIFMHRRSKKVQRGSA

[2] = molecular target: T2, HLA-DP4 molecule DPA1*0103/DPB1*0401 (DP401) (Homo sapiens, UniProt P04440+P20036); test: biochemical; type: binding
T2 construct: purified from various human B lymphocyte lines transformed with the Epstein Barr virus (EBV), which are homozygotes for DP; endogenous in cells
T2 sequence (P20036 29-260): T1 sequence (P20036 29-260)
T2 sequence (P04440 30-258): T1 sequence (P04440 30-258 A65V/A84D/A85E) with V36A, D55A, E56A

Row | Sequence | Loss of binding to DP*0402 (ratio of the IC50 values for the mutant peptide and for the UNK1 peptide) [1] | Loss of binding to DP*0401 (ratio of the IC50 values for the mutant peptide and for the UNK1 peptide) [2]
1 | KYFAATQFEPVAA [UNK L13V] | 1.9 | 2.5
2 | KYFAATQFEPYAA [UNK L13Y] | 15 | 2
3 | KYFAATQFKPLAA [UNK E11K] | 0.7 | 1.3
4 | KYFAATQKEPLAA [UNK F10K] | 350 | 420
5 | KYFAATQLEPLAA [UNK F10L] | 6.7 | 7.2
6 | KYFAATQNEPLAA [UNK F10N] | 1809 | 2460
7 | KYFAATQTEPLAA [UNK F10T] | 476 | 1171
8 | KYFAATQYEPLAA [UNK F10Y] | 3.4 | 2.4
9 | KYFAAYQFEPLAA [UNK T8Y] | 2.4 | 4.1
10 | KYFAKTQFEPLAA [UNK A7K] | 1.2 | 2
11 | KYFKATQFEPLAA [UNK A6K] | 1 | 1.6
12 | KYKAATQFEPLAA [UNK F5K] | 297 | 569
13 | KYLAATQFEPLAA [UNK F5L] | 6 | 3.6
14 | KYNAATQFEPLAA [UNK F5N] | 76 | 398
15 | KYTAATQFEPLAA [UNK F5T] | 126 | 234
16 | KYYAATQFEPLAA [UNK F5Y] | 3.9 | 3
